Laboratory results taken from ChEMBL document CHEMBL1201862, “PubChem BioAssay data set” (2004).
Calls of active or inactive are those of the source.

Tests used:
Assay type in all cases: functional
Aurora kinase A = target: T1, Aurora kinase A (Homo sapiens, UniProt O14965);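 note: value from the Navigating the Kinome kinase panel profiling, panel entry STK6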
T1 sequence (O14965 whole entry): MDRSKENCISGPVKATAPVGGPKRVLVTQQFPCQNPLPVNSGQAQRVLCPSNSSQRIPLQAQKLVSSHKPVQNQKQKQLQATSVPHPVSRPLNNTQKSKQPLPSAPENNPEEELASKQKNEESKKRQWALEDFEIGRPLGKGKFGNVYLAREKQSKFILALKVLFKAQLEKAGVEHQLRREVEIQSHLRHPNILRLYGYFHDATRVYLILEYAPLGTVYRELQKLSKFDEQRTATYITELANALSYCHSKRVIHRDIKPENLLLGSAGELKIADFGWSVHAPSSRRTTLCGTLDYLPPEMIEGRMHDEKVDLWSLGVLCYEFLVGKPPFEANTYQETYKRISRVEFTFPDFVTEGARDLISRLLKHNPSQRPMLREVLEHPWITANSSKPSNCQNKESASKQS

LIM domain kinase 1 = LIM domain kinase 1 (Homo sapiens, UniProt P53667); assay: Navigating the Kinome. Panel member name: LIMK1
[1] = target: Cyclin-dependent kinase 8 (Homo sapiens, UniProt P49336); assay: Navigating the Kinome. Panel member name: CDK8
[2] = target: Glycogen synthase kinase-3 alpha (Homo sapiens, UniProt P49840);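 note: GSK3A result taken from a broad kinome-wide kinase panel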
[3] = target: cAMP-dependent protein kinase catalytic subunit alpha (Homo sapiens, UniProt P17612)
[4] = target: Protein kinase C theta type (Homo sapiens, UniProt Q04759); assay: Navigating the Kinome. Panel member name: PRKCQ
[5] = target: Macrophage-stimulating protein receptor (Homo sapiens, UniProt Q04912); assay: Navigating the Kinome. Panel member name: MST1R
[6] = target: Dual specificity protein kinase CLK4 (Homo sapiens, UniProt Q9HAZ1)
[7] = target: T2, Serine/threonine-protein kinase TBK1 (Homo sapiens, UniProt Q9UHD2); assay: Navigating the Kinome. Panel member name: TBK1
T2 sequence (Q9UHD2 whole entry): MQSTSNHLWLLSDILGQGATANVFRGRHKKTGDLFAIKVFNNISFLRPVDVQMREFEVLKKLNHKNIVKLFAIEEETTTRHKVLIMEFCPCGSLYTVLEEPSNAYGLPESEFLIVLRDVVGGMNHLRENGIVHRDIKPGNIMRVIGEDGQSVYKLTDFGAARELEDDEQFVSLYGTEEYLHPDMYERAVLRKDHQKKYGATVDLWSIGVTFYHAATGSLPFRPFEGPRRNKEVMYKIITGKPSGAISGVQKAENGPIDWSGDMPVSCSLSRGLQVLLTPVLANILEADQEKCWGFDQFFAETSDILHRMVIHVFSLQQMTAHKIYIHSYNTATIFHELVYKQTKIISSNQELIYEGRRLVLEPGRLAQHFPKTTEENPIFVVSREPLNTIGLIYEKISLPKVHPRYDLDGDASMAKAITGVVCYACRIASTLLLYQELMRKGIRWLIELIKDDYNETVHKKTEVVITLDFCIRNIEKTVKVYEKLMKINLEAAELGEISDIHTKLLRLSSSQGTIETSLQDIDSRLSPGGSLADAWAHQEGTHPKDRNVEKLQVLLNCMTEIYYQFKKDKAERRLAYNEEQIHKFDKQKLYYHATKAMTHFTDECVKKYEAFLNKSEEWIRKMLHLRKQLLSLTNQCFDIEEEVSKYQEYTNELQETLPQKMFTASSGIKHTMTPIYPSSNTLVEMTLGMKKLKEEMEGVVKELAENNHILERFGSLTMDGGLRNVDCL

[8] = target: Dual specificity tyrosine-phosphorylation-regulated kinase 1A (Homo sapiens, UniProt Q13627);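 note: measured against DYRK1A as one member of a broad kinome profiling panel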
[9] = target: Glycogen synthase kinase-3 beta (Homo sapiens, UniProt P49841);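 note: value comes from a broad kinome profiling panel, with GSK3B as the panel member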
[10] = target: T3, Serine/threonine-protein kinase D3 (Homo sapiens, UniProt O94806);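 note: determined within a kinase panel screen, with PRKCN as the panel member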
T3 sequence (O94806 whole entry): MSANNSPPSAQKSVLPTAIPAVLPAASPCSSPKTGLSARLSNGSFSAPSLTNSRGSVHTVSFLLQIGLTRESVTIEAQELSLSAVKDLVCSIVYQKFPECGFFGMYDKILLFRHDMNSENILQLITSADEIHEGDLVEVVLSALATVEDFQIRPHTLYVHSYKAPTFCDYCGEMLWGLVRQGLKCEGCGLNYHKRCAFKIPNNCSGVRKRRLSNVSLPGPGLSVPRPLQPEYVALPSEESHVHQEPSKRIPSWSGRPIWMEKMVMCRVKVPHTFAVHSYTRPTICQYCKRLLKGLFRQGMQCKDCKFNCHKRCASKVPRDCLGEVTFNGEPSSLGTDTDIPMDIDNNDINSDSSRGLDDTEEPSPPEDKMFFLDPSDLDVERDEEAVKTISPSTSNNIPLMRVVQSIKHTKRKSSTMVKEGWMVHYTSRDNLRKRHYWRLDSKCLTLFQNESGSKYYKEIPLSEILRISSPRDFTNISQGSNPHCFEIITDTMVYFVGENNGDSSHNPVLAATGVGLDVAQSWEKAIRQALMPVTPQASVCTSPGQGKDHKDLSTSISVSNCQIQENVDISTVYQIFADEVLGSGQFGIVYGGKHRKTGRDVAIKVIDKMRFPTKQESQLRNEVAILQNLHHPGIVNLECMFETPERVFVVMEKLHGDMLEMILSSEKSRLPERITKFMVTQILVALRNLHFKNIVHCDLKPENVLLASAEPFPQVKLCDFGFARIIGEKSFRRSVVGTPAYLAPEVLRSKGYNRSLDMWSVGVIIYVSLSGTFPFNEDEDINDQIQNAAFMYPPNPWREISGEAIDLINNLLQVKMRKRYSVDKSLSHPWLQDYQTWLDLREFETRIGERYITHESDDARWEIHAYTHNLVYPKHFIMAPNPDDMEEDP

[11] = target: Fibroblast growth factor receptor 1 (Homo sapiens, UniProt P11362)
[12] = target: Leukocyte tyrosine kinase receptor (Homo sapiens, UniProt P29376); assay: Navigating the Kinome. Panel member name: LTK

Sequence of Glycogen synthase kinase-3 alpha (P49840 whole entry): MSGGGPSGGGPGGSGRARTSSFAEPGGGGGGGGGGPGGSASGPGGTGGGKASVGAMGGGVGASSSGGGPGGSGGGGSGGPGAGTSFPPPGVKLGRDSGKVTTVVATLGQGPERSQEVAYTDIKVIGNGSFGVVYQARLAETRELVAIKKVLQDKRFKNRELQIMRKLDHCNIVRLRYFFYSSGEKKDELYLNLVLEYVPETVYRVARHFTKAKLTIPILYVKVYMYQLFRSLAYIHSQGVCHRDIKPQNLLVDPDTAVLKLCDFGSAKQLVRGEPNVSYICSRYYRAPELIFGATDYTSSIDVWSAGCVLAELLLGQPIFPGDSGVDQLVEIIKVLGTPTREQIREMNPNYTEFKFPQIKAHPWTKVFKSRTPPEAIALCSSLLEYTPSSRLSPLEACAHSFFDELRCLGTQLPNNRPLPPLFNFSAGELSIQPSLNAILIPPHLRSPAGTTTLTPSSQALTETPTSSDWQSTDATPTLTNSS
Sequence of Cyclin-dependent kinase 8 (P49336 whole entry): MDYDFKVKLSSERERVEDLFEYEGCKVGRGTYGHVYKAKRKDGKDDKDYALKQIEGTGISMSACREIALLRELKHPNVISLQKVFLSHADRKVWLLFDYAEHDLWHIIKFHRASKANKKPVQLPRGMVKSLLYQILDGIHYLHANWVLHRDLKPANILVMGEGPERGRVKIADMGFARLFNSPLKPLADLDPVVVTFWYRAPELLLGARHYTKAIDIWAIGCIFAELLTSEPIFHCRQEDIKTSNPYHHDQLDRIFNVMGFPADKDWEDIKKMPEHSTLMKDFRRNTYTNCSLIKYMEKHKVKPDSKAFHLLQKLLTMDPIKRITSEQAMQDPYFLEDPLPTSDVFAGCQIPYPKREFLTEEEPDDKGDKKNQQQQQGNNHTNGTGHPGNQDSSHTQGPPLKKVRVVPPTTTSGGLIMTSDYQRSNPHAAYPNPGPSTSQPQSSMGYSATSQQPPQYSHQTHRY
Sequence of Fibroblast growth factor receptor 1 (P11362 whole entry): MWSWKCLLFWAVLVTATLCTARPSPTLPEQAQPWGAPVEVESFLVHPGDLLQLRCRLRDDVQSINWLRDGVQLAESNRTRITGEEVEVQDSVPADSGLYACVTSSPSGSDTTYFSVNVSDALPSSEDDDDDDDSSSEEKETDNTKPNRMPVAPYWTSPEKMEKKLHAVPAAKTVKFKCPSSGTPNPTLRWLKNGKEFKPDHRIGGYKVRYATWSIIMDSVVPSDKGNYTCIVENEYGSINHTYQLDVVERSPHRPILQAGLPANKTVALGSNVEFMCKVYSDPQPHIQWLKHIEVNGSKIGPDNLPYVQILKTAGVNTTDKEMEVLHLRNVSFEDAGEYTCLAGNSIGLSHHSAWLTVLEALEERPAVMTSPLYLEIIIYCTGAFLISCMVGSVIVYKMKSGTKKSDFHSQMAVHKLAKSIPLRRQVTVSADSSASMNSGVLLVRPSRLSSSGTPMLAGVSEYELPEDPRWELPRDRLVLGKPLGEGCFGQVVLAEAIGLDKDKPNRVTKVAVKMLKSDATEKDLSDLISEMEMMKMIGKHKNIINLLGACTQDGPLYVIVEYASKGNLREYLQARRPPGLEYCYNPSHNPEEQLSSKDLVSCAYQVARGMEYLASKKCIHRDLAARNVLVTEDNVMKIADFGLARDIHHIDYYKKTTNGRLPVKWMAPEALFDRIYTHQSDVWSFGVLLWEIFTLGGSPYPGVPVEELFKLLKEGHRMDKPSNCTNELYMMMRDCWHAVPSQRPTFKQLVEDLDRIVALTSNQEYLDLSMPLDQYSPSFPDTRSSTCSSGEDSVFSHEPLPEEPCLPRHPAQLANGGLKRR
Sequence of Protein kinase C theta type (Q04759 whole entry): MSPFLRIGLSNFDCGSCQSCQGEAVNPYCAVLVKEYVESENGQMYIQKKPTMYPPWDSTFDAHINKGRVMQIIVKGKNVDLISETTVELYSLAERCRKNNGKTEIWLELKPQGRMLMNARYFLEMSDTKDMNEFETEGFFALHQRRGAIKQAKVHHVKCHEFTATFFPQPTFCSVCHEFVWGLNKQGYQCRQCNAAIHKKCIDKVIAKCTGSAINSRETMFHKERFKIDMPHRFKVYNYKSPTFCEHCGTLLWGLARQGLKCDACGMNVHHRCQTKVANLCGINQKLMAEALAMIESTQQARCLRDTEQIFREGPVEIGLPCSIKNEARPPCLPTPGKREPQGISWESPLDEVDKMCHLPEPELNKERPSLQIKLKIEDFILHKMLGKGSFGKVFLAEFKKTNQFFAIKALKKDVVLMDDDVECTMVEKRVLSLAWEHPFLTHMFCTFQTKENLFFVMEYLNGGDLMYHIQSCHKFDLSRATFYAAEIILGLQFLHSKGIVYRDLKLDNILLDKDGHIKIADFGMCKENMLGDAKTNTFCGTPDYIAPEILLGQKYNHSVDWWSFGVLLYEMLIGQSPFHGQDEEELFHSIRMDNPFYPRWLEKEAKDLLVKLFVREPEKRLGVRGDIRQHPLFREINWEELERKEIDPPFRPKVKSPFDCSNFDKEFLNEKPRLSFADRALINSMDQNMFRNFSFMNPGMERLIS
Sequence of Glycogen synthase kinase-3 beta (P49841 whole entry): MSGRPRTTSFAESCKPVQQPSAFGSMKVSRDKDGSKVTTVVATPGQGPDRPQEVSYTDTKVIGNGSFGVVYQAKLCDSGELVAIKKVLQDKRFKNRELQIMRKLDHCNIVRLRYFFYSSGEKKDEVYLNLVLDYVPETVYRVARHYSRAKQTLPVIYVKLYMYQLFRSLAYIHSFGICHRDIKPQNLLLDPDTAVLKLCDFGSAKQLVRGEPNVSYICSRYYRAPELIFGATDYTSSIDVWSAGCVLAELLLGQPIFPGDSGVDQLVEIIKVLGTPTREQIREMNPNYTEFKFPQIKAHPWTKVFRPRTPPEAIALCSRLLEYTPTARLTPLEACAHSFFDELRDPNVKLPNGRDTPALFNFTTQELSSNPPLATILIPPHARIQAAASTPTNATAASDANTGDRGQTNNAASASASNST
Sequence of Macrophage-stimulating protein receptor (Q04912 25-304 limits assumed): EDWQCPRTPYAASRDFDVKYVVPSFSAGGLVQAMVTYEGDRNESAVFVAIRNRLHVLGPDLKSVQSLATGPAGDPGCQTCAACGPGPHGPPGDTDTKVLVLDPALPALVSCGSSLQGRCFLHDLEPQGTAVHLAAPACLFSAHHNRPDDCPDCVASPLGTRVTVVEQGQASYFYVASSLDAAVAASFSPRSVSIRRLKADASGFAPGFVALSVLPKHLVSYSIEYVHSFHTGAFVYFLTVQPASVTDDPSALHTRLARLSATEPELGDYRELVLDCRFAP
Sequence of Macrophage-stimulating protein receptor (Q04912 310-1400 limits assumed): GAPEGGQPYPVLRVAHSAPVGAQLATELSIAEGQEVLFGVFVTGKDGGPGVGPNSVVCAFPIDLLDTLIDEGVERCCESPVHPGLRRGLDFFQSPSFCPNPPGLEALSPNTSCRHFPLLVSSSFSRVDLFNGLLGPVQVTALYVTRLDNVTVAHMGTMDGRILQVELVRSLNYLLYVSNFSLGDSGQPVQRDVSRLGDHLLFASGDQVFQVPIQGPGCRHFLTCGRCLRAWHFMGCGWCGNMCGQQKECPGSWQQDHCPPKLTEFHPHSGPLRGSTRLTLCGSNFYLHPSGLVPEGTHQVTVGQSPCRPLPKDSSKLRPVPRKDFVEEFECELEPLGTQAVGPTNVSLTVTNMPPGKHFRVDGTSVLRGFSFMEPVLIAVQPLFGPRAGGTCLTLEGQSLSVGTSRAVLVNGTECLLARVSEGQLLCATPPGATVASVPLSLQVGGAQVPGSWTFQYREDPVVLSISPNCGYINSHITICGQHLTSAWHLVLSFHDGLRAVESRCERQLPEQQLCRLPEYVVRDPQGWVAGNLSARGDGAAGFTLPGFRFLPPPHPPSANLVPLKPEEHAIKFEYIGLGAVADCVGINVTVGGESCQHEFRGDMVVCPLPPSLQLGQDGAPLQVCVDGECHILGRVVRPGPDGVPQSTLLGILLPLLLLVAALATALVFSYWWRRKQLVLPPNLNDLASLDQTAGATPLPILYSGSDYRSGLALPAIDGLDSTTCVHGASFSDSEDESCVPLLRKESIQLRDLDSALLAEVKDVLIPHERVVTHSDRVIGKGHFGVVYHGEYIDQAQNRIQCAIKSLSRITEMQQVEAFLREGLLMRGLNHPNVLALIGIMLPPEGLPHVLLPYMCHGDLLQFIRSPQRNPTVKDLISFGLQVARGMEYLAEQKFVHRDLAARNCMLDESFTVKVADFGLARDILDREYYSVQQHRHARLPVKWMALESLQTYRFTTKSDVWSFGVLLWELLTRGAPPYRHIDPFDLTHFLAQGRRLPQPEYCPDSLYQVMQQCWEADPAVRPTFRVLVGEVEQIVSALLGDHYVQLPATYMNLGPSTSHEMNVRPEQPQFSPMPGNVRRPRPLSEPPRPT
Sequence of Dual specificity protein kinase CLK4 (Q9HAZ1 whole entry): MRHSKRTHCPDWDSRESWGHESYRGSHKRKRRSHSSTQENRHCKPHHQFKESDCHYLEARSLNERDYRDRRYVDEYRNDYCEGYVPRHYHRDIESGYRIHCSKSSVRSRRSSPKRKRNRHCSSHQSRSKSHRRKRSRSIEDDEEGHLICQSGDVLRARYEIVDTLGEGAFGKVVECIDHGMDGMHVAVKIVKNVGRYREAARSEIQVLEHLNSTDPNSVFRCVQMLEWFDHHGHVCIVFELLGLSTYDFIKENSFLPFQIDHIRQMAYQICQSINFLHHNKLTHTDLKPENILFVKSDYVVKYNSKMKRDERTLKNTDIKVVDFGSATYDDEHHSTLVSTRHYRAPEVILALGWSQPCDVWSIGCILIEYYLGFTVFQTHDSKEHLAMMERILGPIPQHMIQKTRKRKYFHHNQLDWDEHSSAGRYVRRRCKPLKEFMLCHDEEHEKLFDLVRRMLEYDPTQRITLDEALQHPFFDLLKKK

Ki (Aurora kinase A)	Ki (LIM domain kinase 1)	Ki [1]	Ki [2]	Ki [3]	Ki [4]	Ki [5]	Ki [6]	Ki [7]	Ki [8]	Ki [9]	Ki [10]	Ki [11]	Ki [12]	Structure (SMILES)
> 1.58 µM (inactive)	2.51 µM (active)	> 3.98 µM (inactive)	631 nM (active)	> 1.26 µM (inactive)	316 nM (active)	63.1 nM (active)	1.26 µM (active)	1.26 µM (active)	> 2 µM (inactive)	501 nM (active)	> 3.98 µM (inactive)	1.26 µM (active)	3.98 nM (active)	O=C1Nc2cc(-c3ccc(O)cc3)ccc2C1=Cc1ccc[nH]1
0.251 µM (active)	0.501 µM (active)	1.58 µM (active)	1.26 nM (active)	0.00126 µM (active)	3.98 nM (active)	1.58 nM (active)	0.000316 µM (active)	0.00794 µM (active)	0.000398 µM (active)	2.51 nM (active)	0.0158 µM (active)	0.126 µM (active)	126 nM (active)	NC(COc1cncc(-c2ccc3c(c2)C(=Cc2ccc[nH]2)C(=O)N3)c1)Cc1ccccc1 (configuration not stated)
20 µM (active)	63.1 µM (active)	25.1 µM (active)	15800 nM (active)	> 50.1 µM (inactive)	63100 nM (active)	79400 nM (active)	6.31 µM (active)	79.4 µM (active)	39.8 µM (active)	15800 nM (active)	63.1 µM (active)	50.1 µM (active)	15800 nM (active)	O=C1Cc2cc(-c3ccccc3)cnc2N1
